# Read-outs that look alike come from different tables or passages of the source. Marks after values point to notes of the source that are not given here. Starred links: 1 amine or outer side, 2 acyl side, 3 side chain; linkers in the order of their positions; H or OH if unused. Non-standard residues stand in square brackets, D forms with d. Groups on a side chain read outwards from the residue. *: point of attachment. C20 diacid = O=C(O)CCCCCCCCCCCCCCCCCCC(=O)*; C18 diacid = O=C(O)CCCCCCCCCCCCCCCCC(=O)*; αMePhe(2-F) = C[C@](N)(Cc1ccccc1F)C(=O)O; γGlu = O=C(O)[C@H](CCC(=O)[*:2])N[*:1]; NMeY = CN[C@@H](Cc1ccc(O)cc1)C(=O)O; αMeY = C[C@](N)(Cc1ccc(O)cc1)C(=O)O; αMeF = C[C@](N)(Cc1ccccc1)C(=O)O; 4Pal = N[C@@H](Cc1ccncc1)C(=O)O; αMeL = CC(C)C[C@](C)(N)C(=O)O; αMeS = C[C@](N)(CO)C(=O)O; Orn = NCCC[C@H](N)C(=O)O; AEEA = NCCOCCOCC(=O)O; Aib = CC(C)(N)C(=O)O
# Assays:
# hGIPR [1] = target: T1, hGIPR (Homo sapiens, UniProt P48546); experiment: Functional cAMP activity in the presence of 1% HSA; format: cell-based; conditions: read-out: cAMP Rel EC50, hGIPR
# T1 sequence (P48546 22-466): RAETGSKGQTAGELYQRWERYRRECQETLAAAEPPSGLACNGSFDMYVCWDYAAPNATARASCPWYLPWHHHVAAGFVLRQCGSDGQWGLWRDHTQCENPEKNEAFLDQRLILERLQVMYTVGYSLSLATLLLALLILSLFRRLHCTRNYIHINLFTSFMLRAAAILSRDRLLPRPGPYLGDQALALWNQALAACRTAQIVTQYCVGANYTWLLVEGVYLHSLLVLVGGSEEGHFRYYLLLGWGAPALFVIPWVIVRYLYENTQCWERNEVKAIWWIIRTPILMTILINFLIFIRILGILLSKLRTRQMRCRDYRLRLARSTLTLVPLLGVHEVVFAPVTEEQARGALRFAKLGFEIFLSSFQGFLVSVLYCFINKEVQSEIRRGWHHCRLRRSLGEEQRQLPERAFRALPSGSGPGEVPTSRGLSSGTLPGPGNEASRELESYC
# hGLP-1R [2] = target: T2, hGLP-1R (Homo sapiens, UniProt P43220); experiment: Functional cAMP activity in the presence of 1% HSA; format: cell-based; conditions: read-out: cAMP Rel EC50, hGLP-1R
# Target sequence in this assay (P43220 24-463): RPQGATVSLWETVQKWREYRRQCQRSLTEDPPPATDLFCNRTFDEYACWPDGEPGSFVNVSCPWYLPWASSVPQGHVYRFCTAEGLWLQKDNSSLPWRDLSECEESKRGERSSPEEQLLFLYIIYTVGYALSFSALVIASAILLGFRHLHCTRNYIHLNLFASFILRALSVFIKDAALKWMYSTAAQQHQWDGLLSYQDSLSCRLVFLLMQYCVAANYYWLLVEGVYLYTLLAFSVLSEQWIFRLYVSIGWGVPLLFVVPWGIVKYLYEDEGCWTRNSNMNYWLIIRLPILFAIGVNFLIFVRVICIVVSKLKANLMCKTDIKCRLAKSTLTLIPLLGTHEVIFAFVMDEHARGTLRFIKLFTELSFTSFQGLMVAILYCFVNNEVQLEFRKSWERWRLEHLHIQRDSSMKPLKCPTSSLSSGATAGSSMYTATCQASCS
# human GcgR = human GcgR (Homo sapiens, UniProt P47871); experiment: Functional cAMP activity in the presence of 1% HSA; format: cell-based; conditions: read-out: cAMP Rel EC50, hGcgR
# Chain of human GcgR (P47871 26-477): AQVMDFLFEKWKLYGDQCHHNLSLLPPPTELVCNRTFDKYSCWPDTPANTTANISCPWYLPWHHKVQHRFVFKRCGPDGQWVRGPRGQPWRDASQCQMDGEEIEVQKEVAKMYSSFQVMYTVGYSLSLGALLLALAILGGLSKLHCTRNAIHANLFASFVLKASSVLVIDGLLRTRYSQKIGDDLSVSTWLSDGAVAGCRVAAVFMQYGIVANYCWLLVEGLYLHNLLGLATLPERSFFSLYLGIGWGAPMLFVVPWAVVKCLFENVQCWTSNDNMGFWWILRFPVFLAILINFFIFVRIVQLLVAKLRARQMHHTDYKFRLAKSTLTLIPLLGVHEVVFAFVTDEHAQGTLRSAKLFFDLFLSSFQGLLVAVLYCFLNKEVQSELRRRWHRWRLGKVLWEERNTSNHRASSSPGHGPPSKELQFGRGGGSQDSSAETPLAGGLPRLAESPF
# hGIPR [3] = target: T1, hGIPR; experiment: Functional cAMP activation in the presence of 0.1% casein (no HSA); format: cell-based; conditions: read-out: Relative cAMP EC50, hGIPR;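 on Relative cAMP EC50, hGIPR: intracellular cAMP rise after 30 min at 37 °C read by HTRF against a standard curve, scaled between buffer alone (0%) and top control ligand concentration (100%), four-parameter fit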;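 on Relative cAMP EC50, hGLP-1R: intracellular cAMP rise after 30 min at 37 °C read by HTRF, normalized between buffer only (0%) and maximal control ligand (100%), four-parameter variable-slope fit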;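 on Relative cAMP EC50, hGcgR: intracellular cAMP rise after 30 min at 37 °C, read by HTRF against a cAMP standard curve, scaled from buffer only (0%) to maximal control ligand response (100%)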
# hGLP-1R [4] = target: T2, hGLP-1R; experiment: as above; format: cell-based; conditions: read-out: Relative cAMP EC50, hGLP-1R
# Target sequence in this assay (P43220 24-463): as the sequence (P43220 24-463) above
# hGcgR = hGcgR (Homo sapiens, UniProt P47871); experiment: as above; format: cell-based; conditions: read-out: Relative cAMP EC50, hGcgR;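 further: intracellular cAMP rise after 30 min at 37 °C, read by HTRF against a cAMP standard curve, scaled from buffer only (0%) to maximal control ligand response (100%)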
# Chain of hGcgR (P47871 26-477): as the sequence (P47871 26-477) above
# human GLP1-R = human GLP1-R (Homo sapiens, UniProt P43220); experiment: GLP1-R internalization assay in HEK293 cells; format: cell-based; conditions: for EC50: HEK293 cells expressing SNAP-GLP-1R, read-out: GLP1R Internalization EC50
# Chain of human GLP1-R (P43220 24-463): as the sequence (P43220 24-463) above
# hGLP-1R [5] = target: T2, hGLP-1R; experiment: GLP-1R CHO cell β-arrestin recruitment assay; format: cell-based; set-up: host or cells: CHO-K1 (PathHunter, assay-ready frozen cells); conditions: for EC50: CHO-K1 PathHunter, β-arrestin-2, 0.1% casein, read-out: hGLP1R β-arrestin Rel EC50; for % Stimulation Max: normalized to GLP-1(7-36) as maximum control;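 on all read-outs here: luminescence read after 90 min peptide exposure at 37 °C and a further 60 min with detection reagent at room temperature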
# Target sequence in this assay (P43220 24-463): as above
# Target sequence in this assay (P32121 whole entry partner): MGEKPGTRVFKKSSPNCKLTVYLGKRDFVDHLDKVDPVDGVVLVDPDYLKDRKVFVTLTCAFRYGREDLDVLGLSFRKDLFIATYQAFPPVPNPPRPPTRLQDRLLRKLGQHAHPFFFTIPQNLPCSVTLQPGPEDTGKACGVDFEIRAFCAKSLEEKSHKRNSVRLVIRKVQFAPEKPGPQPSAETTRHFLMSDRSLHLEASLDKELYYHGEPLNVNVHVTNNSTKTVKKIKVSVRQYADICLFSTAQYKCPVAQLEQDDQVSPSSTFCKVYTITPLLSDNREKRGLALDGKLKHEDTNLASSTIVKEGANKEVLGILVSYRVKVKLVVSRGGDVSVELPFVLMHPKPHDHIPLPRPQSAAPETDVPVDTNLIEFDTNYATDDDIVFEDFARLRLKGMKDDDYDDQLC
# [6] = Body weight in diet-induced obese C57BL/6 mice; format: in vivo; conditions: percent of starting weight, DIO mice, mean ± SEM n=5
# Method: To investigate the effect of the polypeptides as described herein on weight loss, exemplary polypeptides are dosed to C57BL/6 diet-induced obese (DIO) mice. Specifically, DIO male C57BL/6 mice (Taconic, Germantown, NY) maintained on a calorie-rich diet are used in the following studies. Mice are individually housed in a temperature-controlled (24° C.) facility with 12-hour light/dark cycle (lights on 22:00) and free access to food (TD95217) and water. After a minimum of 2 weeks acclimation to the facility, the mice are randomized according to their body weight, so each experimental group of animals would have similar starting body weight. The body weights range from 41 to 50 g. All groups contain 5 mice. […] Treatments are administered by subcutaneous (SC) injection (10 mL/kg) to ad libitum fed DIO mice 30 to 90 minutes prior to the onset of the dark cycle either once daily (QD) or once every 3 days (Q3D) for 9-16 days. Body weight and food intake are measured daily throughout the study. Body weight is presented as percent of the starting weight. […] Data are presented as mean±SEM of 5 animals per group in Table 7 below. Statistical analysis is performed using repeated measures ANOVA, followed by Dunnett's method comparison test.
# [7] = in the presence of 0.1% casein (no HSA), geometric mean
# [8] = normalized to maximum concentration of GLP-1 (100%)
Molecule,EC50 (hGIPR [1]) [nM],EC50 (hGLP-1R [2]) [nM],EC50 (human GcgR) [nM],EC50 (hGIPR [3]; [7]) [nM],EC50 (hGLP-1R [4]; [7]) [nM],EC50 (hGcgR; [7]) [nM],EC50 (human GLP1-R) [nM],Internalization % TOP (human GLP1-R; [8]) [%],EC50 (hGLP-1R [5]) [nM],% Stimulation Max (hGLP-1R [5]) [%],EC50 (hGIPR [3]) [nM],EC50 (hGLP-1R [4]) [nM],EC50 (hGcgR) [nM],"Body weight (%) ([6]; 10 nmol/kg SC Q3D, 14 days)",Internalization % TOP (human GLP1-R) [%],"Body weight (%) ([6]; 10 nmol/kg SC QD, 15 days)","Body weight (%) ([6]; 10 nmol/kg SC QD, 9 days)"
H-Y[Aib]QGTFTSDFS[Orn][αMeL]LDKK([AEEA-γGlu-C18 diacid])AQ[Aib]AFIEYLLAGGPSSGAPPPEGS-NH2 [Example 93],27.9,397,1390,0.162,2.63,7.16,30.4,50.8,–,–,–,–,–,86.64 +/− 1.94**** %,–,–,–
CC[C@H](C)[C@H](NC(=O)[C@H](Cc1ccccc1)NC(=O)[C@H](C)NC(=O)C(C)(C)NC(=O)[C@H](CCC(N)=O)NC(=O)[C@H](C)NC(=O)[C@H](CCCCNC(=O)COCCOCCNC(=O)CC[C@H](NC(=O)CCCCCCCCCCCCCCCCCCC(=O)O)C(=O)O)NC(=O)[C@H](CCCCN)NC(=O)[C@H](CC(=O)O)NC(=O)[C@H](CC(C)C)NC(=O)[C@](C)(CC(C)C)NC(=O)[C@H](CCCN)NC(=O)[C@H](CO)NC(=O)[C@H](Cc1ccccc1)NC(=O)[C@H](CC(=O)O)NC(=O)[C@H](CO)NC(=O)[C@@H](NC(=O)[C@H](Cc1ccccc1)NC(=O)[C@@H](NC(=O)CNC(=O)[C@H](CCC(N)=O)NC(=O)C(C)(C)NC(=O)[C@@H](N)Cc1ccc(O)cc1)[C@@H](C)O)[C@@H](C)O)C(=O)N[C@@H](CCC(=O)O)C(=O)N[C@@H](Cc1ccc(O)cc1)C(=O)N[C@@H](CC(C)C)C(=O)N[C@@H](CC(C)C)C(=O)N[C@@H](C)C(=O)NCC(=O)NCC(=O)N1CCC[C@H]1C(=O)N[C@@H](CO)C(=O)N[C@@H](CO)C(=O)NCC(=O)N[C@@H](CCC(=O)O)C(=O)N1CCC[C@H]1C(=O)N1CCC[C@H]1C(=O)N1CCC[C@H]1C(=O)N[C@@H](CO)C(=O)N[C@@H](CCC(=O)O)C(=O)NCC(N)=O [Example 29],70.1,493,1350,0.35,3.56,11.1,129,57,–,–,–,–,–,75.96 +/− 3.77**** %,–,–,–
Tirzepatide [reference compound],–,–,–,–,–,–,–,–,–,10.5,–,–,–,–,60.3,–,–
H-Y[Aib]QGTFTSDYSI[αMeL]LDKQAAK([AEEA-AEEA-γGlu-C20 diacid])QFVEWLIA[Aib]GPSSGEPPPAEG-NH2 [Example 334],72.1,171,2070,0.223,0.707,6.77,28.3,96.8,–,–,–,–,–,84.78 +/− 2.74**** %,–,–,–
H-Y[Aib]QGTFTSDFSK[αMeL]LDKK([AEEA-γGlu-C20 diacid])AQ[Aib]AFIEYLLAGAPSSGEPPPSEG-NH2 [Example 24],–,–,–,–,–,–,–,–,–,–,–,–,–,86.10 +/− 1.98**** %,–,–,–
H-Y[Aib]QGTFTSDFSK[αMeL]LDKK([AEEA-γGlu-C20 diacid])AQ[Aib]AFIEYLLAGGPSSGEPPPSSE-NH2 [Example 3],48.1,546,1590,0.217,1.67,3.8,49.2,69.7,> 10000,16.5,–,–,–,–,–,–,–
H-Y[Aib]QGT[αMePhe(2-F)]TSDYSKLLDKIAQK([AEEA-γGlu-C20 diacid])AFIEYLIEGGPSSGAPPPSEG-NH2 [Example 339],28.8,192,1510,0.101,1.06,6.81,–,–,–,–,–,–,–,82.36 +/− 3.01**** %,–,–,–
H-Y[Aib]QGT[αMePhe(2-F)]TSDYSKILDKIAQK([AEEA-γGlu-C20 diacid])AFIEYLLEGGPSSGEPPPSEG-NH2 [Example 311],26.1,1080,2500,0.113,3.36,2.08,–,–,19.2,39.6,–,–,–,–,–,–,–
H-[NMeY][Aib]QGT[αMeF]TSDYSILLDKQAAK([AEEA-AEEA-γGlu-C20 diacid])AFVQWLIEGGPSSGEPPPSEG-NH2 [Example 302],91.8,73.6,1370,0.7,0.621,4.47,–,–,11.2,56.6,–,–,–,–,–,–,–

# Further molecules by falling EC50 (hGIPR [1]), results first:
EC50 (hGIPR [1]) [nM],EC50 (hGLP-1R [2]) [nM],EC50 (human GcgR) [nM],EC50 (hGIPR [3]; [7]) [nM],EC50 (hGLP-1R [4]; [7]) [nM],EC50 (hGcgR; [7]) [nM],EC50 (human GLP1-R) [nM],Internalization % TOP (human GLP1-R; [8]) [%],EC50 (hGLP-1R [5]) [nM],% Stimulation Max (hGLP-1R [5]) [%],EC50 (hGIPR [3]) [nM],EC50 (hGLP-1R [4]) [nM],EC50 (hGcgR) [nM],Molecule,"Body weight (%) ([6]; 10 nmol/kg SC Q3D, 14 days)",Internalization % TOP (human GLP1-R) [%],"Body weight (%) ([6]; 10 nmol/kg SC QD, 15 days)","Body weight (%) ([6]; 10 nmol/kg SC QD, 9 days)"
67.8,1050,901,0.503,4.12,3.97,86.4,42.6,–,–,–,–,–,H-Y[Aib]QGTFTSDFS[Orn][αMeL]LDKK([AEEA-γGlu-C18 diacid])AQ[Aib]AFIEWLLEGGESSGAPPPEGS-NH2 [Example 125],97.90 +/− 0.32%,–,–,–
37.7,293,1440,0.232,1.56,6.04,28.2,84.8,10.8,44,–,–,–,H-Y[Aib]QGTFTSDYSI[αMeL]LDKIAAK([AEEA-AEEA-γGlu-C20 diacid])QFVQWLIE[Aib]GPSSGEPPPSEG-NH2 [Example 323],–,–,–,–
32.5,675,2670,0.177,2.37,7.4,53.4,75,> 10000,18.4,–,–,–,H-Y[Aib]QGTFTSDFSK[αMeL]LDKK([AEEA-AEEA-γGlu-C20 diacid])AQ[Aib]AFIEYLLAGGPSSGEPPPSSE-NH2 [Example 5],–,–,–,–
0.861,9.8,262,–,–,–,–,–,–,–,0.0159,0.183,3.05,H-Y[Aib]QGT[αMePhe(2-F)]TSD[4Pal][αMeS]I[αMeL]LD[Orn]K([AEEA-AEEA-γGlu-C18 diacid])AQ[Aib][Orn]FI[dE][αMeY]LIEGGPSSGEPPPSEG-NH2 [Example 490],–,–,–,80.75 ± 3.23
0.846,–,240,–,–,–,–,–,–,–,0.0118,0.235,2.44,CC[C@H](C)[C@H](NC(=O)[C@H](CC(C)C)NC(=O)[C@](C)(Cc1ccc(O)cc1)NC(=O)[C@@H](CCC(=O)O)NC(=O)[C@@H](NC(=O)[C@H](Cc1ccccc1)NC(=O)[C@H](CC(N)=O)NC(=O)C(C)(C)NC(=O)[C@H](CCC(N)=O)NC(=O)[C@H](C)NC(=O)[C@H](CCCCNC(=O)CC[C@H](NC(=O)CC[C@H](NC(=O)CCCCCCCCCCCCCCCCC(=O)O)C(=O)O)C(=O)O)NC(=O)[C@H](CCCN)NC(=O)[C@H](CC(=O)O)NC(=O)[C@H](CC(C)C)NC(=O)[C@](C)(CC(C)C)NC(=O)[C@@H](NC(=O)[C@](C)(CO)NC(=O)[C@H](Cc1ccncc1)NC(=O)[C@H](CC(=O)O)NC(=O)[C@H](CO)NC(=O)[C@@H](NC(=O)[C@](C)(Cc1ccccc1F)NC(=O)[C@@H](NC(=O)CNC(=O)[C@H](CCC(N)=O)NC(=O)C(C)(C)NC(=O)[C@@H](N)Cc1ccc(O)cc1)[C@@H](C)O)[C@@H](C)O)[C@@H](C)CC)[C@@H](C)CC)C(=O)N[C@@H](CCC(=O)O)C(=O)NCC(=O)NCC(=O)N1CCC[C@H]1C(=O)N[C@@H](CO)C(=O)N[C@@H](CO)C(=O)NCC(=O)N[C@@H](CCC(=O)O)C(=O)N1CCC[C@H]1C(=O)N[C@@H](CCC(=O)O)C(=O)N1CCC[C@H]1C(=O)N[C@@H](CCC(=O)O)C(N)=O [Example 452],–,–,74.13 ± 4.11,–

# Reference: patent publication US20240270821A1, “GIP/GLP1/GCG TRI-RECEPTOR AGONISTS AND USES THEREOF” (priority 2023, published 2024)
